Experimental data from paper PMC8571316 (Scientific Reports, 2021).
Peptide text beside a SMILES is read from it. * marks the point of attachment. Biotin = O=C1N[C@H]2[C@H](CS[C@H]2CCCCC(=O)*)N1; PEG4 = NCCOCCOCCOCCOCCC(=O)O

The molecules below were run on Influenza HA.
Assay type: binding

Structure (SMILES) | cross-reactivity (selectivity of binding, in words)
CC[C@H](C)[C@H](NC(=O)[C@@H](NC(=O)[C@H](Cc1ccc(O)cc1)NC(=O)[C@H](Cc1ccccc1)NC(=O)[C@H](Cc1ccc(O)cc1)NC(=O)[C@@H](NC(=O)[C@H](CCC(=O)O)NC(=O)[C@H](CCSC)NC(=O)[C@H](Cc1c[nH]c2ccccc12)NC(=O)[C@H](Cc1c[nH]cn1)NC(=O)[C@H](CO)NC(=O)[C@H](Cc1ccccc1)NC(=O)[C@H](CCSC)NC(=O)[C@H](CC(=O)O)NC(=O)[C@H](Cc1c[nH]c2ccccc12)NC(=O)[C@H](CC(=O)O)NC(=O)[C@@H](NC(=O)[C@H](CCCCN)NC(=O)CCOCCOCCOCCOCCNC(=O)CCCC[C@@H]1SC[C@@H]2NC(=O)N[C@@H]21)[C@@H](C)O)[C@@H](C)CC)C(C)C)C(=O)O [Peptide P180] ({Biotin-PEG4}-KTDWDMFSHWMEIYFYVI-OH; C-terminus assumed) | some level of cross-reactivity
CC(C)C[C@H](NC(=O)[C@H](CC(=O)O)NC(=O)[C@H](CCC(=O)O)NC(=O)[C@H](Cc1c[nH]c2ccccc12)NC(=O)[C@H](CCC(=O)O)NC(=O)[C@H](CC(C)C)NC(=O)[C@H](CC(N)=O)NC(=O)[C@H](Cc1ccccc1)NC(=O)[C@@H](NC(=O)[C@H](Cc1ccccc1)NC(=O)[C@H](CC(C)C)NC(=O)[C@H](Cc1ccccc1)NC(=O)[C@H](CC(C)C)NC(=O)[C@@H](NC(=O)[C@H](Cc1c[nH]c2ccccc12)NC(=O)[C@H](CC(=O)O)NC(=O)CCOCCOCCOCCOCCNC(=O)CCCC[C@@H]1SC[C@@H]2NC(=O)N[C@@H]21)[C@@H](C)O)C(C)C)C(=O)N[C@@H](Cc1ccccc1)C(=O)N[C@@H](Cc1ccc(O)cc1)C(=O)O [Peptide P89] ({Biotin-PEG4}-DWTLFLFVFNLEWEDLFY-OH; C-terminus assumed) | some level of cross-reactivity
CC[C@H](C)[C@H](NC(=O)[C@H](CC(=O)O)NC(=O)[C@H](Cc1ccccc1)NC(=O)[C@H](CC(N)=O)NC(=O)CCOCCOCCOCCOCCNC(=O)CCCC[C@@H]1SC[C@@H]2NC(=O)N[C@@H]21)C(=O)N[C@@H](CC(C)C)C(=O)N[C@@H](CC(C)C)C(=O)N[C@@H](Cc1ccccc1)C(=O)N[C@H](C(=O)N[C@@H](Cc1ccccc1)C(=O)N[C@@H](CC(N)=O)C(=O)N[C@@H](Cc1ccc(O)cc1)C(=O)N[C@@H](CCC(=O)O)C(=O)N[C@@H](CCSC)C(=O)N[C@@H](CCC(=O)O)C(=O)N[C@@H](CC(=O)O)C(=O)N[C@@H](CCCCN)C(=O)N[C@@H](Cc1ccccc1)C(=O)N[C@@H](Cc1ccc(O)cc1)C(=O)O)C(C)C [Peptide P168] ({Biotin-PEG4}-NFDILLFVFNYEMEDKFY-OH; C-terminus assumed) | some level of cross-reactivity
CC[C@H](C)[C@H](NC(=O)[C@H](CCC(=O)O)NC(=O)[C@H](Cc1ccc(O)cc1)NC(=O)[C@H](Cc1ccc(O)cc1)NC(=O)[C@H](CCSC)NC(=O)[C@H](Cc1c[nH]cn1)NC(=O)[C@H](CCSC)NC(=O)[C@H](Cc1c[nH]c2ccccc12)NC(=O)[C@H](CCCCN)NC(=O)[C@H](CC(=O)O)NC(=O)[C@H](Cc1c[nH]c2ccccc12)NC(=O)[C@H](CCC(=O)O)NC(=O)[C@@H](NC(=O)[C@H](CCCCN)NC(=O)CCOCCOCCOCCOCCNC(=O)CCCC[C@@H]1SC[C@@H]2NC(=O)N[C@@H]21)[C@@H](C)O)C(=O)N[C@@H](Cc1ccccc1)C(=O)N[C@@H](Cc1ccc(O)cc1)C(=O)N[C@@H](CCC(=O)O)C(=O)N[C@@H](CC(=O)O)C(=O)O [Peptide P100] ({Biotin-PEG4}-KTEWDKWMHMYYEIFYED-OH; C-terminus assumed) | some level of cross-reactivity
